The term EC50 denotes the concentration at which the effect is half-maximal. As a reminder, the IC50 is the concentration that inhibits the measured activity by half. By Ki is commonly meant a dissociation constant, usually derived from enzyme kinetics or from competition with a known ligand. What is called ΔTm is the change in melting temperature against a reference sample.

From ChEMBL document CHEMBL5543146 (J Med Chem, 2024) come the findings set out here.

For series [1], the target named is T1, Fibroblast growth factor receptor 1 (Homo sapiens, UniProt P11362). The series is described as follows: Inhibition of full length nanoluc-fused FGFR1 transfected in HEK293T cells assessed as target engagement incubated for 3 hrs in presence of K10 tracer by Nano BRET assay. It counts as cell-based. In general terms: Bioluminescence resonance energy transfer reports proximity on the nanometre scale.

Series [2] deals with T2, Fibroblast growth factor receptor 2 (Homo sapiens, UniProt P21802). Description: Inhibition of full length nanoluc-fused FGFR2 transfected in HEK293T cells assessed as target engagement incubated for 3 hrs in presence of K10 tracer by Nano BRET assay. It counts as cell-based.
Series [3] has as its target T3, Fibroblast growth factor receptor 3 (Homo sapiens, UniProt P22607). The series is described as follows: Inhibition of full length nanoluc-fused FGFR3 transfected in HEK293T cells assessed as target engagement incubated for 3 hrs in presence of K10 tracer by Nano BRET assay. It counts as cell-based.
Target sequence in this assay (P22607 whole entry, the tested form may be a part): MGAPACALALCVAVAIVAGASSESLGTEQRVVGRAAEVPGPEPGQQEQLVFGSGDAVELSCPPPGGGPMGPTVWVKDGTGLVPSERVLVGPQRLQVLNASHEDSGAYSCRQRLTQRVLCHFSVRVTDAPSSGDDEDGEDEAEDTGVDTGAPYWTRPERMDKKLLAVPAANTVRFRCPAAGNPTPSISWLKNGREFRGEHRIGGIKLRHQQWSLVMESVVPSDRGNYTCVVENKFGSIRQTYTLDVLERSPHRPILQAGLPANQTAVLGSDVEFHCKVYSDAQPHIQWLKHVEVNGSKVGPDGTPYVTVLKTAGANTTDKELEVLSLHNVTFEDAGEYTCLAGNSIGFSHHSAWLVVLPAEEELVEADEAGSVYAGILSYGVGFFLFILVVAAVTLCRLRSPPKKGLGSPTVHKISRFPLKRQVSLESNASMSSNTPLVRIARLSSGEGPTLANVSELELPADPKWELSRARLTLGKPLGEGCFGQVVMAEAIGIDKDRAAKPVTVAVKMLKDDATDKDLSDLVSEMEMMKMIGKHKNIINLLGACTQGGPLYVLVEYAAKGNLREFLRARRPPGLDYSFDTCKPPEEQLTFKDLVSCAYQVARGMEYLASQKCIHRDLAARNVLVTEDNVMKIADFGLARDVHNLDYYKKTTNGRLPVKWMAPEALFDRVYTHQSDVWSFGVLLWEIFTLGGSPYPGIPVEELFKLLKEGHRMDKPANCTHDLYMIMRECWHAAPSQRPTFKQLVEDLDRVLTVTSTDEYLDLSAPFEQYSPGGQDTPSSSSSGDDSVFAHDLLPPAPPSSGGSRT
A further series concerns Hep 3B2. Description: cells. The conditions noted are these: Homo sapiens, Hep3B, 96 h.
The target in series [4] is T4, Fibroblast growth factor receptor 4 (Homo sapiens, UniProt P22455). The series is described as follows: Inhibition of N-terminal GST tagged cytoplasmic domain human FGFR4 (460 to 802 residues) expressed in Escherichia coli BL21 (DE3) using CSox as substrate incubated for 240 mins in presence of ATP by hotspot assay.
Target sequence in this assay (P22455 whole entry, the tested form may be a part): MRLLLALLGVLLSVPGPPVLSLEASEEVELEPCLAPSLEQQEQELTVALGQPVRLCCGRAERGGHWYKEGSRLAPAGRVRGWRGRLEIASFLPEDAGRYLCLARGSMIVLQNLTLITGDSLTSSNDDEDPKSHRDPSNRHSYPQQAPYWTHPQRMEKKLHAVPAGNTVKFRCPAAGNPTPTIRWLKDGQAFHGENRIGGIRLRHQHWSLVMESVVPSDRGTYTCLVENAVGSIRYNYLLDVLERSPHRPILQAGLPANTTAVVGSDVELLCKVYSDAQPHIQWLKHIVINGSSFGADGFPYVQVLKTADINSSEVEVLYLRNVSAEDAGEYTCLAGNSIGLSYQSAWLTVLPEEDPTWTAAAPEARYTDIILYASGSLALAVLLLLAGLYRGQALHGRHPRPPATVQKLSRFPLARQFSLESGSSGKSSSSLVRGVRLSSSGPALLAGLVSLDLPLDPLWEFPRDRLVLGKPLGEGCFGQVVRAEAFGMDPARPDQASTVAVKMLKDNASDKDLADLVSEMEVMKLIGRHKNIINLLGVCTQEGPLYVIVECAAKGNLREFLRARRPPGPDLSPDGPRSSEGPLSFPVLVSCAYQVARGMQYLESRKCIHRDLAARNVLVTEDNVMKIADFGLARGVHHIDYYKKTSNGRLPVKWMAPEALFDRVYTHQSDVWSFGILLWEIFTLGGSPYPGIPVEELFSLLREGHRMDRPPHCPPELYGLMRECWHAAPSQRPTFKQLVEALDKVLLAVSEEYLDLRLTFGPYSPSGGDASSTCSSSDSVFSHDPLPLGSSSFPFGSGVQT
The target of series [5] is T4, Fibroblast growth factor receptor 4. The series is described as follows: Inhibition of N-terminal GST tagged cytoplasmic domain human FGFR4 (460 to 802 residues) expressed in Escherichia coli BL21 (DE3) using CSox as substrate assessed as residual activity at 5 uM incubated for 240 mins in presence of ATP by hotspot assay relative to control.
Target sequence in this assay (P22455 22-802 limits assumed): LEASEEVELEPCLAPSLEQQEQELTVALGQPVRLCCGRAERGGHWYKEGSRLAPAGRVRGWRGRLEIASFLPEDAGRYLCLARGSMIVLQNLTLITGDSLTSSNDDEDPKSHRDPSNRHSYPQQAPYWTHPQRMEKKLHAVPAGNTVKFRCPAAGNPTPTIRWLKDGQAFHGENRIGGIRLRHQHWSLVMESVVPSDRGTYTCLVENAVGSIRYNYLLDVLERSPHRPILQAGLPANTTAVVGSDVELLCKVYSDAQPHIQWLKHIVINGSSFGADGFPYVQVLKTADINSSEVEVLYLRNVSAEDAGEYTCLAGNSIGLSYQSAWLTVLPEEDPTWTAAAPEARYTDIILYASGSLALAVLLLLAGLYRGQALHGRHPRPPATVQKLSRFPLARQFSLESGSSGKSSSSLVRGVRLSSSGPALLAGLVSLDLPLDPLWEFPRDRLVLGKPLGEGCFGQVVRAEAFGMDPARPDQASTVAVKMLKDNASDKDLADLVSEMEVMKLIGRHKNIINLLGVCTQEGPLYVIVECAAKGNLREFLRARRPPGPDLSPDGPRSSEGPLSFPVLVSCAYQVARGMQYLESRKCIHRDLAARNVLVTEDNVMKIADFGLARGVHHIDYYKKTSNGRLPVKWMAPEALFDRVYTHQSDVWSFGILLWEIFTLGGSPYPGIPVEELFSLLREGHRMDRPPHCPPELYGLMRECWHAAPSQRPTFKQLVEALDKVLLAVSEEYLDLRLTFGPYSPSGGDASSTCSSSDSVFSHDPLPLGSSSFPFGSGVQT
In series [6] the target is T5, Dual specificity protein kinase TTK (Homo sapiens, UniProt P33981).
T5 sequence (P33981 whole entry): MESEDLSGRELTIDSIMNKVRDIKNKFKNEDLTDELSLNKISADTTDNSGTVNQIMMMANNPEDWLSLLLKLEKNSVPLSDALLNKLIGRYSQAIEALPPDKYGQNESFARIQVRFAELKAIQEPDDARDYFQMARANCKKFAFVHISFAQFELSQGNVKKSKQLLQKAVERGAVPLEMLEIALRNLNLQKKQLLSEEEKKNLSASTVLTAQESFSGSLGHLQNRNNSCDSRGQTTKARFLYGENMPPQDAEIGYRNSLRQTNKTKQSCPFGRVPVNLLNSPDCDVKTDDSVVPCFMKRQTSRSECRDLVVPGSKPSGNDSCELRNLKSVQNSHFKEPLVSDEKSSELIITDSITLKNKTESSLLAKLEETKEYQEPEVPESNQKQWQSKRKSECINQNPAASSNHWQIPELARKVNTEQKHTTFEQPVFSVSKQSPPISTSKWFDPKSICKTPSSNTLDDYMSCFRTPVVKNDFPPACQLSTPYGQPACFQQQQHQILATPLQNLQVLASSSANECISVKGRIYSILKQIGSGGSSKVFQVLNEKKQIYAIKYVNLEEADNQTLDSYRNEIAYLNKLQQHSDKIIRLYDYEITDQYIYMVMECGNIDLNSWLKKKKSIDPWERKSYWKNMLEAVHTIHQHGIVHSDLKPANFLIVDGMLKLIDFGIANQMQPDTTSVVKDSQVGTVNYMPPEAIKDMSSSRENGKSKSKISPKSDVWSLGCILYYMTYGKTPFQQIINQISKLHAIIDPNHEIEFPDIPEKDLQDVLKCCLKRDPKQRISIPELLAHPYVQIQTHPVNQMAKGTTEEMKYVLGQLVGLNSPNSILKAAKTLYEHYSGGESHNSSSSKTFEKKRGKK
The series is described as follows: Inhibition of human wild type TTK using RBER-CHKtide as substrate in presence of ATP by hotspot assay.

Series [7] addresses T4, Fibroblast growth factor receptor 4. Description: Inhibition of N-terminal GST tagged cytoplasmic domain human FGFR4 (460 to 802 residues) expressed in Escherichia coli BL21 (DE3) by phosphosen-csox based assay.
Target sequence in this assay (P22455 whole entry, the tested form may be a part): as the sequence (P22455 whole entry, the tested form may be a part) above
Series [8] concerns the target T2, Fibroblast growth factor receptor 2. The series is described as follows: Inhibition of human FGFR2 in presence of ATP by hotspot assay.
Series [9] has as its target T3, Fibroblast growth factor receptor 3. Description: Inhibition of human wild type FGFR3 using polyEY as substrate in presence of ATP by hotspot assay.
Target sequence in this assay (P22607 whole entry, the tested form may be a part): as the sequence (P22607 whole entry, the tested form may be a part) above
Series [10] has as its target Ribosomal protein S6 kinase beta-2 (Homo sapiens, UniProt Q9UBS0). Description: Inhibition of human wild type S6K2 using RBER-CHKtide as substrate in presence of ATP by hotspot assay.
Series [11] concerns the target T4, Fibroblast growth factor receptor 4. The series is described as follows: Binding affinity to N-terminal GST tagged cytoplasmic domain human FGFR4 (460 to 802 residues) expressed in Escherichia coli BL21 (DE3) assessed as inhibition constant using sox as substrate incubated for 30 mins followed by enzyme addition and measured after 120 mins in presence of ATP by PhosphoSens CSox-based continuous assay.
Target sequence in this assay (P22455 whole entry, the tested form may be a part): as the sequence (P22455 whole entry, the tested form may be a part) above

For series [12] the target is unchanged. The series is described as follows: Inhibition of full length nanoluc-fused FGFR4 transfected in HEK293T cells assessed as target engagement incubated for 3 hrs in presence of K10 tracer by Nano BRET assay. It counts as cell-based.
Target sequence in this assay (P22455 whole entry, the tested form may be a part): as above
The target of series [13] is T3, Fibroblast growth factor receptor 3. The series is described as follows: Binding affinity to FGFR3 (unknown origin) assessed as change in melting temperature by differential scanning fluorimetry analysis. A general note: DSF heats the sample and reads unfolding from a dye or from intrinsic fluorescence.
A short description of series [14]: Metabolic stability in human liver microsomes assessed as compound remaining measured after 2 hrs in presence of NADPH regenerating system measured upto 120 mins by LC-MS analysis. It counts as ADME, Microsome. The note with it: read-out: Stability. (In general: Liver microsomes are vesicles of endoplasmic reticulum, rich in cytochrome P450 enzymes.)
The target in series [15] is T1, Fibroblast growth factor receptor 1. Description: Inhibition of human FGFR1 using poly[Glu:Tyr] (4:1) as substrate in presence of ATP by hotspot assay.
Series [16] addresses MAP kinase-activated protein kinase 2 (Homo sapiens, UniProt P49137). Description: Inhibition of human MAPKAPK2 using KKLNRTLSVA as substrate in presence of ATP by hotspot assay.
Series [17] has as its target MAP kinase-activated protein kinase 3 (Homo sapiens, UniProt Q16644). The series is described as follows: Inhibition of human MAPKAPK3 using KKLNRTLSVA as substrate in presence of ATP by hotspot assay.

T2 sequence (P21802 whole entry, the tested form may be a part): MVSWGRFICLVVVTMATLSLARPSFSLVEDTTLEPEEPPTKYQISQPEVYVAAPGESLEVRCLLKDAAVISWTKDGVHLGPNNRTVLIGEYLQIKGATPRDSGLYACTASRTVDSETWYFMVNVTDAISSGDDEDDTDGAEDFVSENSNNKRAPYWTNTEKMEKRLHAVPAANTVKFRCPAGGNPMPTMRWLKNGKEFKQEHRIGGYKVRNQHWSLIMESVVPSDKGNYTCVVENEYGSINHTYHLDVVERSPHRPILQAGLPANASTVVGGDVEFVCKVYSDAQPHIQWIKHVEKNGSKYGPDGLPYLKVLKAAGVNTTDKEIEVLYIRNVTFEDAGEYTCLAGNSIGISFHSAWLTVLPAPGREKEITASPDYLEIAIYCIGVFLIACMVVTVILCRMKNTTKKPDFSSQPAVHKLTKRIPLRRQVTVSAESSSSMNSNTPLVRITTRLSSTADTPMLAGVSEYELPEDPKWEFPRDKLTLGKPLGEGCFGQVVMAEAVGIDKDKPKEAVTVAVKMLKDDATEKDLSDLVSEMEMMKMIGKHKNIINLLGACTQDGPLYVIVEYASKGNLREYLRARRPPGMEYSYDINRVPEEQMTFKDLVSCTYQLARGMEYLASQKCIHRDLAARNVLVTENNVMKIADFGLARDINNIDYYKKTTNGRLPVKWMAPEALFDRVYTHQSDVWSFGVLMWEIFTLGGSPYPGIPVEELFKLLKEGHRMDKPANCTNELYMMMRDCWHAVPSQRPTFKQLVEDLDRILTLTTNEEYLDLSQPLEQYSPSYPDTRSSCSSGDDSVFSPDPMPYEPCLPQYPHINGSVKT
T1 sequence (P11362 whole entry, the tested form may be a part): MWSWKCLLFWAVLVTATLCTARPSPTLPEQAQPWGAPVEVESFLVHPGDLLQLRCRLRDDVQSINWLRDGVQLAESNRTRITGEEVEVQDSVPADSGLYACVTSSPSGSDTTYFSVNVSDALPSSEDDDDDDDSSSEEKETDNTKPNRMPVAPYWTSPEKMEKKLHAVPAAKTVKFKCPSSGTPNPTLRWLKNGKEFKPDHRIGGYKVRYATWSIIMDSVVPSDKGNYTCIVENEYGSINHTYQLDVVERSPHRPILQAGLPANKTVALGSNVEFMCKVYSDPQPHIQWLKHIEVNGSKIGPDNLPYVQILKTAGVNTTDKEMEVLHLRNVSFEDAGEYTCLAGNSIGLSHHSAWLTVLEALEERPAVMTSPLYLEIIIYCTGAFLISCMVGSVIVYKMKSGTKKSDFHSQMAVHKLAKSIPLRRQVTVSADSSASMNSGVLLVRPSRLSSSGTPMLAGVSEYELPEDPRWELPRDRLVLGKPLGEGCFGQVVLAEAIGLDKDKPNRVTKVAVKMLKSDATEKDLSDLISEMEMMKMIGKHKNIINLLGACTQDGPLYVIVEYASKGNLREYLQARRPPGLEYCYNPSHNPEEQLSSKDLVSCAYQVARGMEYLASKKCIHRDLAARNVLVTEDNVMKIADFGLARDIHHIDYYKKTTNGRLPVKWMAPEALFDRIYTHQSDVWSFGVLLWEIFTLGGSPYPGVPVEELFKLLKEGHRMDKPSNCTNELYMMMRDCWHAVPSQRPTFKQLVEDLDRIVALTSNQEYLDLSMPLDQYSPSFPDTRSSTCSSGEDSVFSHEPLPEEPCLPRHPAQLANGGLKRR
Sequence of Ribosomal protein S6 kinase beta-2 (Q9UBS0 whole entry, the tested form may be a part): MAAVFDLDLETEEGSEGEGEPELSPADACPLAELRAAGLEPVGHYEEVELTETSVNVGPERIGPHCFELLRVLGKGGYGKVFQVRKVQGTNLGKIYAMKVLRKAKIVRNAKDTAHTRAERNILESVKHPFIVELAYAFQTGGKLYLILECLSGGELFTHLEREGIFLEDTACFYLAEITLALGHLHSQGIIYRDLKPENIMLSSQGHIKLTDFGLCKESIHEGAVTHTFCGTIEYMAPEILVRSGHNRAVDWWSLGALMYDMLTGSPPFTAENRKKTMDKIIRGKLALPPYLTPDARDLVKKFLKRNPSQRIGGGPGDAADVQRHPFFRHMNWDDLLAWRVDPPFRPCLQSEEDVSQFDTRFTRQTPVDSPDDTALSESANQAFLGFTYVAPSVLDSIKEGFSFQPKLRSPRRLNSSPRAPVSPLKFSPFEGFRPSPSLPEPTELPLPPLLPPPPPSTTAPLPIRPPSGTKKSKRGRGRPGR
Sequence of MAP kinase-activated protein kinase 3 (Q16644 whole entry): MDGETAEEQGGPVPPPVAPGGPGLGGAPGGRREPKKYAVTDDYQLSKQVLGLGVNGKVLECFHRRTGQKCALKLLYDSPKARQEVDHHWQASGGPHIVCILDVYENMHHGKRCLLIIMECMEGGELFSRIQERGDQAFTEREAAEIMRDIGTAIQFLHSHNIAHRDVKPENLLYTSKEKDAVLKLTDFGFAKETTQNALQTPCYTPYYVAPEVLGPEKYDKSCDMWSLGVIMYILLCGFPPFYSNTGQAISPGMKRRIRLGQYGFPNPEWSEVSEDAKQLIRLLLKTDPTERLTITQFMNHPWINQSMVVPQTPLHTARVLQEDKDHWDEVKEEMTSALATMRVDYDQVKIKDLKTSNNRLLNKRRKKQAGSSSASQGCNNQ
Description for Hep 3B2: Antiproliferative activity against human Hep3B cells measured after 4 days by Celltiter-glo based luminescent assay

In the case of `C=CC(=O)Nc1cccc(C)c1Nc1ncc2cc(-c3c(Cl)c(OC)cc(OC)c3Cl)ccc2n1`, the concentration for a half-maximal effect (EC50) in series [1] turned out to be 4260 nM; in series [2], 3300 nM; in [3], 2240 nM; with Hep 3B2, 62 nM.
With `COc1cc(OC)cc(-c2ccc3nc(Sc4nc(Cl)ccc4[N+](=O)[O-])ncc3c2)c1`, the IC50 in [4] was 4450 nM.
`COc1cc(OC)cc(-c2ccc3nc(Sc4ccnc(F)n4)ncc3c2)c1`: the IC50 in series [4] was > 5000 nM. Also, the Activity in series [5] is > 100%.
The corresponding values for `COc1cc(OC)cc(-c2ccc3nc(Sc4ccnc(Cl)n4)ncc3c2)c1` are > 5000 nM and 82.6%.
`COc1cc(OC)cc(-c2ccc3nc(Nc4nc(C)ccc4[N+](=O)[O-])ncc3c2)c1`: the IC50 in [4] was > 5000 nM. Moreover, the Activity in series [5] was found to be 53.6%.
`COc1cc(OC)c(Cl)c(-c2ccc3nc(Nc4nc(Cl)ccc4[N+](=O)[O-])ncc3c2)c1Cl`: the IC50 was > 5000 nM in series [6]; < 0.5 nM in [4]; 1.2 nM in series [7]; 490 nM in series [8]; > 5000 nM in series [9]; 18.2 nM in series [10]. Further, the Ki in series [11] is 5.7 nM. For the same molecule, the half-maximal effective concentration (EC50) was found to be 1290 nM in series [2], 1430 nM in [3] and 52 nM in series [12].
On to `COc1cc(OC)cc(-c2ccc3nc(Sc4ncccc4[N+](=O)[O-])ncc3c2)c1`, for which the IC50 in series [4] is > 5000 nM. Also, the Activity in [5] worked out at 97.9%.
For the molecule `COc1cc(OC)c(Cl)c(-c2ccc3nc(Nc4ncccc4[N+](=O)[O-])ncc3c2)c1Cl`, the IC50 in series [4] was 1700 nM. The Activity in series [5] is 89.4%. Besides, the ΔTm in [13] is 4.5 °C. Besides, the EC50 was found to be 867 nM in series [1]; 867 nM in [2]; 1780 nM in [3]; 2260 nM in series [12]; 1070 nM in the series on Hep 3B2. Also, in series [14], the remaining at 2 h was > 80%.
`COc1cc(OC)cc(-c2ccc3ncncc3c2)c1`: the half-maximal inhibitory concentration (IC50) in series [4] is > 5000 nM. Also, in series [5], the Activity worked out at 93.1%.
`COc1cc(OC)cc(-c2ccc3nc(Nc4nc(Cl)ccc4[N+](=O)[O-])ncc3c2)c1`: the IC50 is > 5000 nM in [6]; < 0.5 nM in series [4]; 4.5 nM in series [7]; > 5000 nM in series [15]; > 5000 nM in [8]; > 5000 nM in [9]. Moreover, the 50% inhibitory concentration (IC50) is 4.48 nM in [10], > 5000 nM in series [16] and > 5000 nM in [17]. Besides, the Ki in series [11] was 37.9 nM. Moreover, the EC50 in series [1] is > 10000 nM; in [2], > 10000 nM; in series [3], > 10000 nM; in series [12], 30 nM; in the series with Hep 3B2, 5 nM.
For the molecule `COc1cc(OC)cc(-c2ccc3nc(-n4ccc5cnc(Cl)nc54)ncc3c2)c1`, the IC50 in series [4] is > 5000 nM.
Regarding `COc1cc(OC)cc(-c2ccc3nc(-c4cccc5cnc(Cl)nc45)ncc3c2)c1`, the 50% inhibitory concentration (IC50) in [4] was > 5000 nM. The Activity in series [5] is 96.5%.
Regarding `COc1cc(OC)c(Cl)c(-c2ccc3ncncc3c2)c1Cl`, in series [4], the IC50 stood at 2090 nM.
For the molecule `COc1cc(OC)cc(-c2ccc3nc(Nc4ncccc4[N+](=O)[O-])ncc3c2)c1`, in series [4], the IC50 is > 5000 nM. Further, the Activity in series [5] was 92.1%.
`COc1cc(OC)cc(-c2ccc3nc(Sc4nc(Cl)ncc4F)ncc3c2)c1`: the concentration for half-maximal inhibition (IC50) in [4] is > 5000 nM. Also, the Activity in [5] turned out to be 96.5%.
